Results from patent US11596613B2, “Compositions and methods for treating cancer” (UNIVERSITY OF IOWA RESEARCH FOUNDATION, priority 2015, dated 2023).

Test system: A375 xenografts
Assay: A375 xenografts in athymic nu/nu mice treated with PLX4720 diet and/or BSO in drinking water
Assay type: in vivo
Protocol: 2-Mercaptoethanol is a reducing agent that leads to reduction of disulphide bonds to produce thiols. […] The effect of eliminating GSH in vivo was tested by treating mice (Athymic nu/nu) bearing A375 xenografts with rodent diet (AIN-76A) containing PLX4720 ([…], 416 mg/kg of diet) alone and in combination with BSO (15 mM in drinking water). […] Tumor xenografts in mice treated with the AIN-76 diet mixed with PLX4720 were responsive initially, but approximately 80% of these tumors acquired resistance to BRAFi treatment alone within 140 days (i.e., 20% complete responses; FIG. 2). On the contrary, the combination of BSO with PLX4720 produced nearly 90% complete and durable tumor responses (FIG. 4). […] Tumor progression was defined as a 50% increase (approximately a two standard deviation increase) in tumor volume from study initiation.
Female athymic nu/nu mice (age six weeks) were purchased from Envigo (previously Harlan Laboratories) and housed in the Animal Care Facility at The University of Iowa (Iowa City, Iowa). All procedures were approved by The University of Iowa Institutional Animal Care and Use Committee. All mice were naïve to treatments at the time of xenograft. For each xenograft, 1-3×10^6 cells (451LuBR and A375) were implanted subcutaneously in a 1:1 suspension of Matrigel (Corning) and PBS (flank) using a 27-gauge needle. For all in vivo studies, the mice were randomly assigned to experimental groups post-implant. Animals developed tumors within 7-10 days post-implant. Initiation of treatments was standardized to the time that tumor volume ([(longest length)×(smallest length^2)]/2) reached 80-100 mm^3.
The dose and mode of delivery for PBA was determined by analyzing the pharmacokinetics C-14 labeled PBA in mice (FIG. 5). These drugs were administered alone and in combination depending on the experimental group. The mice were monitored for their state of health every day. Tumor volume and animal weights were measured twice per week. Mice were euthanized when the observed state of health reached the endpoint according to the approved IACUC protocol or when the tumor volume reached 1500 mm^3.
Statistics was conducted using the tumor sizes (mm^3) that were obtained periodically throughout the experiments, resulting in repeated measurements for each mouse. Linear mixed effects regression models were used to estimate and compare treatment group-specific tumor growth curves. Pairwise comparisons were performed to identify treatment group differences in the growth curves. The Kaplan-Meier method was used to estimate the survival curves, and group comparisons were made using the log rank test. Mice who developed ulcerations were censored at day of euthanasia. […]

| SMILES | tumor growth rate (BSO 15 mM in drinking water, versus untreated controls) | GSH concentrations in tumor samples (mice treated with BSO vs controls) | complete (and durable) tumor responses (PLX4720 416 mg/kg of diet, alone or with BSO 15 mM in drinking water) [%] | tumors that acquired resistance to BRAFi treatment (within 140 days, PLX4720 416 mg/kg of AIN-76A diet) |
| --- | --- | --- | --- | --- |
| CCCCS(=N)(=O)CCC(N)C(=O)O (stereo not shown) [BSO, buthionine sulfoximine] | No significant difference | significantly lower | – | – |
| CCCS(=O)(=O)Nc1ccc(F)c(C(=O)c2c[nH]c3ncc(Cl)cc23)c1F [PLX4720] | – | – | 20 | approximately 80% |
